In ChEMBL document CHEMBL2074095, “Molecular cloning of PEPT 2, a new member of the H+/peptide cotransporter family, from human kidney” (Biochim Biophys Acta, 1995) one finds Activity data, which are given here for four molecules.

Residues, ends and D or L forms follow the SMILES beside them.

Common to all, as to format: functional, cell-based
Holding throughout (design): scale not given: the % may be the effect or the level left

The target of experiment [1] is T1, Solute carrier family 15 member 2 (Homo sapiens) (UniProt Q16348).
T1 sequence (whole entry): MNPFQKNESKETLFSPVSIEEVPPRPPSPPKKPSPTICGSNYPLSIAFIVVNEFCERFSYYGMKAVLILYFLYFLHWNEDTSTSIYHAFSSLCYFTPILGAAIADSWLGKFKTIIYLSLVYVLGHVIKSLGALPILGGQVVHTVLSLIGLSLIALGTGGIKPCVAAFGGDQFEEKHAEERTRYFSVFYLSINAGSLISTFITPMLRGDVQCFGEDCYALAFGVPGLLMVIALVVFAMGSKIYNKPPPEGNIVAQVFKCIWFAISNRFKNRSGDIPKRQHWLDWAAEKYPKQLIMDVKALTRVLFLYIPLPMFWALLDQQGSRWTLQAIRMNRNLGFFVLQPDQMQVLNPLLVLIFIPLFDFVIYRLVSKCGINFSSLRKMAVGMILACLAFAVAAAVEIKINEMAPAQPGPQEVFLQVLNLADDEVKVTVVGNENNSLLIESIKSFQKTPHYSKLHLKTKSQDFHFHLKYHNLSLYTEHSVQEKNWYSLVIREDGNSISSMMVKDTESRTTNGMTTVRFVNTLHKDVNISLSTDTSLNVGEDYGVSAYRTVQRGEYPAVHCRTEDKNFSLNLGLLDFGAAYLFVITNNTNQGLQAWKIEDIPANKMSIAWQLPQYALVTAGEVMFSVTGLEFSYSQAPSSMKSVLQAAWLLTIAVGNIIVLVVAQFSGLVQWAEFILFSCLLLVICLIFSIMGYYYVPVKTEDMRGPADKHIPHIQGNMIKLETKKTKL
Put plainly: TP_TRANSPORTER: inhibition of Gly-Sar uptake (Gly-Sar: 30 uM, Cephalexin: 10000 uM) in PEPT2-expressing HeLa cells.

Experiment [2] concerns the target T1, Solute carrier family 15 member 2 (Homo sapiens). Put plainly: TP_TRANSPORTER: inhibition of Gly-Sar uptake (Gly-Sar: 30 uM, Cephadroxil: 10000 uM) in PEPT2-expressing HeLa cells.
Experiment [3] has the same target. Put plainly: TP_TRANSPORTER: inhibition of Gly-Sar uptake (Gly-Sar: 30 uM, Ala-Gly-Pro: 10000 uM) in PEPT2-expressing HeLa cells.
For experiment [4] the target is unchanged. Description: TP_TRANSPORTER: inhibition of Gly-Sar uptake (Gly-Sar: 30 uM, Gly-Phe: 10000 uM) in PEPT2-expressing HeLa cells.

Regarding `CC1=C(C(=O)O)N2C(=O)[C@@H](NC(=O)[C@H](N)c3ccccc3)[C@H]2SC1`, in experiment [1], the Activity is 0%. As for `CC1=C(C(=O)O)N2C(=O)[C@@H](NC(=O)[C@H](N)c3ccc(O)cc3)[C@H]2SC1`, the Activity in experiment [2] was 0%. Regarding `C[C@H](N)C(=O)NCC(=O)N1CCC[C@H]1C(=O)O` (H-Ala-Gly-Pro-OH), in experiment [3], the Activity is 0%. Consider `NCC(=O)N[C@@H](Cc1ccccc1)C(=O)O` (H-Gly-Phe-OH), for which the Activity in experiment [4] was 0%.
